Experimental data as given in ChEMBL document CHEMBL1154233, “Minor furanocoumarins and coumarins in grapefruit peel oil as inhibitors of human cytochrome P450 3A4” (J Nat Prod, 2009).

These compounds were tested against Cytochrome P450 3A4 (Homo sapiens, UniProt P08684) (assay: Inhibition of CYP3A4 after 30 mins by fluorescence microplate reader assay). Conditions: not given; call rule not given here.
Cytochrome P450 3A4, sequence (P08684 whole entry): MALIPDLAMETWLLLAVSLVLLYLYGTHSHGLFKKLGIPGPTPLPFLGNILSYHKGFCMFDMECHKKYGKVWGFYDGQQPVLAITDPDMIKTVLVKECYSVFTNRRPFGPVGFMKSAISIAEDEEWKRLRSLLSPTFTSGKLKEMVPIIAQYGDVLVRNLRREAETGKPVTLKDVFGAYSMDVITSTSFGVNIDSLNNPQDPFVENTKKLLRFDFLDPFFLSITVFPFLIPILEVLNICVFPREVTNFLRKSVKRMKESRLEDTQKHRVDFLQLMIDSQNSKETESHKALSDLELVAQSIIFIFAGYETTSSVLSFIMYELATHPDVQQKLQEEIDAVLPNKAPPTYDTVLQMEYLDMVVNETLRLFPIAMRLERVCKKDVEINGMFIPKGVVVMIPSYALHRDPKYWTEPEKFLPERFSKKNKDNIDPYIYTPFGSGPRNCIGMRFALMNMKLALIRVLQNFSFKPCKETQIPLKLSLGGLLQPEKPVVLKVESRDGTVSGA
Type: ADME
With `CCCCCCCCCC1O[C@H](CC/C(C)=C/COc2ccc3ccc(=O)oc3c2)C(C)(C)O1` (some centres not stated) the IC50 was “Not Active”.
For `CC(C)=CCC/C(C)=C/COc1ccc2ccc(=O)oc2c1` [AURAPTENE], the IC50 was “Not Active”.
`C/C(=C\COc1ccc2ccc(=O)oc2c1)CC[C@@H](O)C(C)(C)O` [R-(+)-MARMIN] was tested, and the IC50 was “Not Active”.

Same assay, conditions: read-out: IC50
Work on `CCCCCCCC1O[C@H](CC/C(C)=C/COc2c3ccoc3cc3oc(=O)ccc23)C(C)(C)O1` (some centres not stated) yielded an IC50 of 130 nM.
Compound `CCCCCCCCCC1O[C@H](CC/C(C)=C/COc2c3ccoc3cc3oc(=O)ccc23)C(C)(C)O1` (some centres not stated) has an IC50 of 270 nM.
Work on `C/C(=C\COc1c2ccoc2cc2oc(=O)ccc12)CC[C@@H](O)C(C)(C)O` yielded an IC50 of 1580 nM.
With `CC(C)=CCC/C(C)=C/COc1c2ccoc2cc2oc(=O)ccc12` [BERGAMOTTIN] the IC50 was 2420 nM.
